Results from ChEMBL document CHEMBL1158517, “Discovery of carmegliptin: a potent and long-acting dipeptidyl peptidase IV inhibitor for the treatment of type 2 diabetes” (Bioorg Med Chem Lett, 2010).
Activity calls are given as the source filed them. No cut-off for these calls is given here.

Assays:
Rattus norvegicus [1] = assay: Antidiabetic activity in Zucker fa/fa rat assessed as reduction in glucose level at 0.3 mg/kg pretreated 2 hrs before glucose challenge measured after 40 mins by oral glucose tolerance test; assay type: functional; parameters: scale not given: the % may be the effect or the level left
[2] = Distribution coefficient, log D at pH 7.4; assay type: physicochemical; details: octanol/water
[3] = Permeability coefficient by PAMPA; assay type: ADME
Phospholipidosis = assay: In vitro phospholipidosis at <20uM; assay type: ADME
Rattus norvegicus [4] = assay: Antidiabetic activity in Zucker fa/fa rat assessed as increase in glucose infusion rate at 20 mg/kg daily once for 7 days by euglycemic hyperinsulinemic clamp; assay type: functional, organism-based; parameters: dose 20 mg/kg
Mus musculus [5] = assay: Antidiabetic activity in db/db mouse assessed as reduction in glucose AUC at 10 mg/kg by oral glucose tolerance test relative to control; assay type: functional; parameters: scale not given: the % may be the effect or the level left
Mus musculus [6] = assay: Antidiabetic activity in db/db mouse assessed as reduction in fasting glucose level at 10 mg/kg; assay type: functional, organism-based; parameters: dose 10 mg/kg
hERG (KCNH2) [7] = biological target: T1, hERG (KCNH2) (Homo sapiens, UniProt Q12809); assay: Inhibition of human ERG at 10 uM by patch clamp assay
T1 sequence (Q12809 whole entry): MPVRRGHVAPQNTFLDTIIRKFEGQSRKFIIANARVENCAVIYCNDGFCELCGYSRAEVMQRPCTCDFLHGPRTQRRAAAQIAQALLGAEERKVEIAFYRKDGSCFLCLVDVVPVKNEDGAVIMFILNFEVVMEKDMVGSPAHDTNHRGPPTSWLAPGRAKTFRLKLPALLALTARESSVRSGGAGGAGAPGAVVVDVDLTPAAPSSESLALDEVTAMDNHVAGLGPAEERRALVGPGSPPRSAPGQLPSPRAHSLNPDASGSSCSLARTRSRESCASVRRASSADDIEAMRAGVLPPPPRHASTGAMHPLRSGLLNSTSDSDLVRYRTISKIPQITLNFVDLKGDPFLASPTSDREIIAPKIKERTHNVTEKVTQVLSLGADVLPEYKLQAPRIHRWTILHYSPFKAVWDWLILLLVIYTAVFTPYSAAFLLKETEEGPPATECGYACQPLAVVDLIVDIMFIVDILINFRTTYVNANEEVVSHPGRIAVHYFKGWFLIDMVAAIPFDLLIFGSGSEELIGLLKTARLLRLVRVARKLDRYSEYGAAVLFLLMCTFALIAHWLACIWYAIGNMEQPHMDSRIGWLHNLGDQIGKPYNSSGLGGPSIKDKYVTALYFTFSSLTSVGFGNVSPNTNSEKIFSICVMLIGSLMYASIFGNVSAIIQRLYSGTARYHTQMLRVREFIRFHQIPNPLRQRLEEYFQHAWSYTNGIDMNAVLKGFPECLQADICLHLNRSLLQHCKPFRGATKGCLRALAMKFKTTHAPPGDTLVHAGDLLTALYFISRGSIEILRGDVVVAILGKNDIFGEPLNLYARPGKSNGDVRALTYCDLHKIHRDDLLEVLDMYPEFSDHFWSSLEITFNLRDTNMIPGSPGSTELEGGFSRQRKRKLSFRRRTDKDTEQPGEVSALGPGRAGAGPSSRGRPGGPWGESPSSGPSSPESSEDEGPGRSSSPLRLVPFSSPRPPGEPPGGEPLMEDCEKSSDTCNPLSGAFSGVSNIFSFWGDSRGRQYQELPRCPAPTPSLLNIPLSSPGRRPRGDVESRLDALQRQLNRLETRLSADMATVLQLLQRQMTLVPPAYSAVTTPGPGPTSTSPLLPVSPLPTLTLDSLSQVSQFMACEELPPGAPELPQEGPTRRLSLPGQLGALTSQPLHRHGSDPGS

[8] = Half life in cynomolgus monkey at 1 mg/kg, iv; assay type: ADME, organism-based, Macaca fascicularis; parameters: dose 1 mg/kg, route intravenous; details: in vivo
Canis familiaris = species: Canis familiaris; assay: Renal clearance in dog as % of total clearance; assay type: ADME, organism-based, Canis lupus familiaris, Kidney; details: in vivo
Cynomolgus monkey [9] = assay: Inhibition of DPP4 in cynomolgus monkey plasma assessed as remaining activity at 3 mg/kg, po after 24 hrs relative to control; assay type: functional, Macaca fascicularis
[10] = Oral bioavailability in cynomolgus monkey at 3 mg/kg; assay type: ADME, organism-based, Macaca fascicularis; details: in vivo
Rattus norvegicus [11] = species: Rattus norvegicus; assay: Renal clearance in rat as % of total clearance; assay type: ADME, organism-based, Kidney; details: in vivo
Rhesus monkey = assay: Renal clearance in monkey as % of total clearance; assay type: ADME, organism-based, Macaca mulatta, Kidney; details: in vivo
[12] = Volume of distribution at steady state in Wistar rat at 1 mg/kg, iv; assay type: ADME, organism-based; parameters: dose 1 mg/kg, route intravenous; details: in vivo, read-out: Vdss
hERG (KCNH2) [13] = biological target: T1, hERG (KCNH2); assay: Inhibition of human ERG by patch clamp assay
Cynomolgus monkey [14] = assay: Inhibition of DPP4 in cynomolgus monkey plasma assessed as remaining activity at 3 mg/kg, po after 48 hrs relative to control; assay type: functional, Macaca fascicularis
Rattus norvegicus [15] = assay: Antidiabetic activity in Zucker fa/fa rat assessed as reduction in hepatic glucose production at 20 mg/kg daily once for 7 days by euglycemic hyperinsulinemic clamp; assay type: functional
[16] = Half life in Wistar rat at 1 mg/kg, iv; assay type: ADME, organism-based; parameters: dose 1 mg/kg, route intravenous; details: in vivo
[17] = Clearance in Wistar rat at 1 mg/kg, iv; assay type: ADME, organism-based; parameters: dose 1 mg/kg, route intravenous; details: in vivo
[18] = Oral bioavailability in Wistar rat at 3 mg/kg; assay type: ADME, organism-based; details: in vivo
[19] = Clearance in cynomolgus monkey at 1 mg/kg, iv; assay type: ADME, organism-based, Macaca fascicularis; parameters: dose 1 mg/kg, route intravenous; details: in vivo
[20] = Volume of distribution at steady state in cynomolgus monkey at 1 mg/kg, iv; assay type: ADME, organism-based, Macaca fascicularis; parameters: dose 1 mg/kg, route intravenous; details: in vivo, read-out: Vdss

| logD [2] | permeability [3] [nm/s] | SMILES | Activity (Rattus norvegicus [1]) [%] | Phospholipidosis (Phospholipidosis) | other results |
| --- | --- | --- | --- | --- | --- |
| -0.3 | 8 | COc1cc2c(cc1OC)[C@@H]1C[C@H](N)[C@@H](N3C[C@H](C)CC3=O)CN1CC2 | 46 |  |  |
| -0.1 | 6 | COc1cc2c(cc1OC)[C@@H]1C[C@H](N)[C@@H](N3C[C@@H](C)CC3=O)CN1CC2 | 79 | Not Active | Activity (Rattus norvegicus [4]): Active; Activity (Mus musculus [5]): 50%; Activity (Mus musculus [6]): Active |
| -0.2 | 2 | COc1cc2c(cc1OC)C1CC(N)C(N3CC(C)CC3=O)CN1CC2 (stereo not given) | 42 | Not Active | inhibition at 10 µM (hERG (KCNH2) [7]): 9% |
| -0.4 | 7 | COc1cc2c(cc1OC)C1CC(N)C(N3CCCC[S+]3[O-])CN1CC2 (stereo not given) | 18 |  |  |
| -0.5 | 2 | COc1cc2c(cc1OC)C1CC(N)C(N3CCCCC3=O)CN1CC2 (stereo not given) | 33 |  |  |
| -0.1 | 9 | CCC1CC(=O)N(C2CN3CCc4cc(OC)c(OC)cc4C3CC2N)C1 (stereo not given) | 31 |  | inhibition at 10 µM (hERG (KCNH2) [7]): 45% |
| -0.5 | 6 | COc1cc2c(cc1OC)C1CC(N)C(N3CCCC3=O)CN1CC2 (stereo not given) |  |  |  |
| -0.4 | 4 | COc1cc2c(cc1OC)[C@@H]1C[C@H](N)[C@@H](N3C[C@H](CF)CC3=O)CN1CC2 | 77 | Not Active | Activity (Mus musculus [5]): 20% |
| -0.2 | 5 | COc1cc2c(cc1OC)C1CC(N)C(N3CCC(C)CC3=O)CN1CC2 (stereo not given) | 16 |  |  |
| -0.9 | 1 | COc1cc2c(cc1OC)C1CC(N)C(N3CCCOC3=O)CN1CC2 (stereo not given) |  |  |  |
| -0.5 | 1.3 | COc1cc2c(cc1OC)[C@@H]1C[C@H](N)[C@@H](N3C[C@@H](CF)CC3=O)CN1CC2 [CARMEGLIPTIN] | 66 | Not Active | half-life [8]: 6.8 h; Fraction cleared renally (Canis familiaris): 30%; Activity (Cynomolgus monkey [9]): 40%; bioavailability [10]: 33%; Fraction cleared renally (Rattus norvegicus [11]): 30%; Fraction cleared renally (Rhesus monkey): 30%; Activity (Rattus norvegicus [4]): Active; Vd [12]: 6.3 L/kg; IC20 (hERG (KCNH2) [13]): 21 µM; Activity (Mus musculus [5]): 30%; Activity (Cynomolgus monkey [14]): 60%; Activity (Rattus norvegicus [15]): 1.3 mg/min/kg; half-life [16]: 5.3 h; clearance [17]: 1.44 L/h/kg; bioavailability [18]: 28%; clearance [19]: 0.51 L/h/kg; Vd [20]: 3.3 L/kg; Activity (Mus musculus [6]): Active |
| -0.7 | 12 | COc1cc2c(cc1OC)C1CC(N)C(N3CCC[S+]3[O-])CN1CC2 (stereo not given) |  |  |  |
| -0.8 | 0 | COc1cc2c(cc1OC)C1CC(N)C(N3CCOC3=O)CN1CC2 (stereo not given) |  |  |  |
| -0.5 | 2 | COc1cc2c(cc1OC)[C@@H]1C[C@H](N)[C@@H](N3CCCCC3=O)CN1CC2 | 56 | Not Active | half-life [8]: 9.4 h; bioavailability [10]: 64%; Vd [12]: 5.9 L/kg; inhibition at 10 µM (hERG (KCNH2) [7]): 45%; half-life [16]: 4.5 h; clearance [17]: 1.5 L/h/kg; bioavailability [18]: 47%; clearance [19]: 1.12 L/h/kg; Vd [20]: 8.6 L/kg |
| 0 | 11 | COc1cc2c(cc1OC)C1CC(N)C(N3CC(C)CCC3=O)CN1CC2 (stereo not given) | 34 | Not Active |  |
